From patent US20250339433A1, “PHARMACEUTICAL COMPOSITION FOR PREVENTION, ALLEVIATION, OR TREATMENT OF CANCER” (JBKLAB CO.,LTD., priority 2021, published 2025)

Tests used:
A549 = assay: Cell viability assay (WST-8), cytotoxicity on cancer cell lines; assay type: cell-based, human
Description: (§1) The cytotoxicity of the compound of Example 1 against various cancer cell lines was evaluated. Etoposide, sold as an anticancer agent, was used as a control group drug. Specifically, the cell viability assay was performed as follows. A549, SK-OV-3, SK-MEL-2, and HCT15 cell lines were seeded in 96 well plates at the density of 5×10^3 cells per well and cultured for 24 hours. Then, the plates were treated with the compound of Example 1 or etoposide at different concentrations, followed by culture for 24 and 48 hours. At the end of the culture, 100 μl of WST-8 solution was added to each well of the plate, and the absorbance was measured with a microplate reader using a 450 nm optical filter to measure the formazan produced by the reducing factors in living cells. • A549: human non-small cell lung cancer cells • SK-OV-3: human ovarian cancer cells • SK-MEL-2: human melanoma cells • HCT15: human colorectal cancer adenocarcinoma cells

HCT15 = assay: as above; assay type: cell-based, human; details: HCT15, 24 and 48 hours, dose dependently
Description: as §1

SK-MEL-2 = assay: as above; assay type: cell-based, human; details: SK-MEL-2, 24 and 48 hours, dose dependently
Description: as §1

SK-OV-3 = assay: as above; assay type: cell-based, human; details: SK-OV-3, 24 and 48 hours, dose dependently
Description: as §1

MDA-MB-231 [1] = assay: Breast cancer growth inhibition in xenograft nude mice; assay type: in vivo; details: 25 mpk intravenously
Description: An experiment was performed to confirm the tumor inhibition of the compound of Example 1, the active ingredient of the pharmaceutical composition of the present invention, on a xenograft tumor sample of breast cancer cells (MBA-MB-231), a human-derived TNBC cell line.
Specifically, to confirm the effect of the compound of Example 1, which is the active ingredient of the pharmaceutical composition provided by the present invention, on the inhibition of breast cancer cell growth, an experiment was performed using 80 female 5-week-old xenograft Balb/c nude mice. The experimental xenograft Balb/c nude mice lacks T cells, the immune cells, were selected as an animal model suitable for transplanting human cancer cells. At the time of administration, animals within ±20% of the total average body weight were selected, and tumor growth was checked twice a week on the surface, and the size of the tumor was measured with a vernier caliper for 3 weeks. In addition, the compound of Example 1 was administered intravenously at a concentration of 25 mpk, and 30% PEG was used as a solvent.

MDA-MB-231 [2] = assay: Number of mitotic figures / apoptotic bodies in xenograft tumor tissue (H&E); assay type: in vivo, BALB/c-nude mice; details: for Mitotic index: sum of five areas at x400
Description: An experiment was performed to evaluate the tumor necrosis effect of the compound of Example 1 by measuring the number of apoptotic bodies in tumors and H&E staining of tumor tissues in BALB/c-nude mice injected with cancer cell lines. […] After calculating the sum of the measurements and expressing them as individual values, statistical comparative analysis was performed using GraphPad Prism 5. As a result of observing the apoptotic body, it was observed that the cells were shrunk and divided (blebs) and that empty space (hollow) surrounded the periphery. […] Since the frequency of mitotic figures in tumor tissue is related to the dividing ability of tumor cells, it can reflect the degree of malignancy of the tumor.

OVCAR-3 = assay: Combination with cisplatin, cell viability; assay type: cell-based, human
Description: (§2) Human ovarian cancer cell lines (SKOV-3 and OVCAR-3) were treated with control (no treatment), 0.1 μM of the compound of Example 1, 10 μM of cisplatin, […], and the cell viability of SKOV-3 and OVCAR-3 was confirmed.

SKOV-3 = assay: Combination with cisplatin, cell viability; assay type: cell-based, human
Description: as §2

Huh-7 = assay: Combination with sorafenib, cell viability / caspase-3 activity; assay type: cell-based, human
Description: (§3) Human liver cancer cell lines (SK Hep1 and Huh-7) were treated with control (no treatment), 5 μM of the compound of Example 1, 0.1 μM of sorafenib, and 5 μM of the compound of Example 1/0.1 μM of sorafenib, and the cell viability of SK Hep1 and Huh-7 was confirmed.

SK Hep1 = assay: as above; assay type: cell-based, human
Description: as §3

BT20 = assay: Breast cancer cell viability assay (WST-8); assay type: cell-based, human; details: dose dependently
Description: (§4) An experiment was performed to confirm the growth inhibitory effect of the compounds of Examples 1 and 2, the active ingredients of the pharmaceutical composition of the present invention, on breast cancer cell lines through cell viability assay.
(§5) Specifically, the cell viability assay was performed as follows. BT20, a human-derived breast cancer cell line, and MDA-MB-231, a TNBC cell line, were each seeded in 96-well plates at the density of 5×10^3 cells/well and cultured for 24 hours. […] At the end of the culture, 100 μl of WST-8 solution was added to each well of the plate, and the absorbance was measured with a microplate reader using a 450 nm optical filter to measure the formazan produced by the reducing factors in living cells.

MDA-MB-231 [3] = assay: Breast cancer cell viability assay (WST-8); assay type: cell-based, human; details: dose dependently
Description: as §4, §5

MDA-MB-453 = assay: Breast cancer cell viability assay (WST-8); assay type: cell-based; details: MDA-MB-453, 24 hours, dose dependently
Description: Specifically, the cell viability assay was performed as follows. BT20, a human-derived breast cancer cell line, and MDA-MB-231, a TNBC cell line, were each seeded in 96-well plates at the density of 5×10^3 cells/well and cultured for 24 hours. Then, I-bet 762 and the compounds were treated thereto at different concentrations and cultured for 48 hours. At the end of the culture, 100 μl of WST-8 solution was added to each well of the plate, and the absorbance was measured with a microplate reader using a 450 nm optical filter to measure the formazan produced by the reducing factors in living cells.
FIGS. 10A and 10B show the cell viability of MDA-MB-231, MDA-MB-453, and BT-20 after 24 hours of treatment with the compound of Example 3.

In the case of `c1nc(Nc2ccc(N3CCCC3)cc2)c2cc[nH]c2n1` [Example 1, N-(4-(pyrrolidin-1-yl)phenyl)-7H-pyrrolo[2,3-d]pyrimidin-4-amine], the “toxicity to cancer cell line (cell viability)” value (“toxicity to cancer cell line” for short) (A549; A549, 24 and 48 hours, dose dependently) is reported as “excellent toxicity”, the “toxicity compared with etoposide” value (A549; various cancer cell lines (A549, SK-OV-3, SK-MEL-2, HCT15)) is reported as “equally or more effective than etoposide” and the “toxicity to cancer cell line” value (HCT15) is reported as “excellent toxicity”. For the same compound, the “toxicity to cancer cell line” value (SK-MEL-2) was “excellent toxicity”, the “toxicity to cancer cell line” value (SK-OV-3) was “excellent toxicity” and the “biological toxicity (change in body weight)” value (MDA-MB-231 [1]; 3 weeks) was “no biological toxicity”. The cachexia phenomenon (MDA-MB-231 [1]; 3 weeks) was “not observed”, the “tumor growth (change in tumor size/volume)” value (MDA-MB-231 [1]; vs CTL) was “significantly suppressed” and the “tumor growth (change in tumor weight)” value (MDA-MB-231 [1]; vs CTL) was “significantly suppressed”. For the same compound, the “number of apoptotic bodies” value (MDA-MB-231 [2]; T1 and T2 groups compared to NC, dose dependently) was “higher”, the Mitotic index (MDA-MB-231 [2]; T1 group (2 times/week)) was 25.5 ± 10.2 and the Mitotic index (MDA-MB-231 [2]; T2 group (3 times/week)) was 20.8 ± 7.4. The cell viability (OVCAR-3; OVCAR-3, 0.1 μM Example 1 in combination with 10 μM cisplatin) was “further inhibited (synergistic effect)”, the cell viability (OVCAR-3; OVCAR-3, 0.1 μM alone) was “suppressed” and the cell viability (SKOV-3; SKOV-3, 0.1 μM Example 1 in combination with 10 μM cisplatin) was “further inhibited (synergistic effect)”. For the same compound, the cell viability (SKOV-3; SKOV-3, 0.1 μM alone) was “suppressed”, the cell viability (Huh-7; Huh-7, 5 μM Example 1 in combination with 0.1 μM sorafenib) was “further inhibited (synergistic effect)” and the cell viability (Huh-7; Huh-7, 5 μM alone) was “suppressed”. The cell viability (SK Hep1; SK Hep1, 5 μM Example 1 in combination with 0.1 μM sorafenib) was “further inhibited (synergistic effect)” and the cell viability (SK Hep1; SK Hep1, 5 μM alone) was “suppressed”.
For `CN1CCN(c2ccc(C(=O)Nc3n[nH]c4ncc(Br)cc34)cc2)CC1` [Example 2, N-(5-bromo-1H-pyrazolo[3,4-b]pyridin-3-yl)-4-(4-methylpiperazin-1-yl)benzamide], the cell viability (BT20; BT20, 24 and 48 hours) was “inhibited the cell viability” and the cell viability (MDA-MB-231 [3]; MDA-MB-231, 24 and 48 hours) was “inhibited the cell viability”.
For `O=C(Nc1n[nH]c2ncc(-c3cnn(C4CCNCC4)c3)cc12)c1ccc(F)cc1` [Example 3, 4-fluoro-N-(5-(1-(piperidin-4-yl)-1H-pyrazol-4-yl)-1H-pyrazolo[3,4-b]pyridin-3-yl)benzamide], the cell viability (BT20; BT-20, 24 hours) was “suppressed”, the cell viability (MDA-MB-231 [3]; MDA-MB-231, 24 hours) was “suppressed” and the cell viability (MDA-MB-453) was “suppressed”.
`N.N.[Cl][Pt][Cl]` [cisplatin, reference compound] was tested, and the cell viability (OVCAR-3; OVCAR-3, 1 μM of cisplatin alone) was “suppressed” and the cell viability (SKOV-3; SKOV-3, 1 μM of cisplatin alone) was “suppressed”.
With `CNC(=O)c1cc(Oc2ccc(NC(=O)Nc3ccc(Cl)c(C(F)(F)F)c3)cc2)ccn1` [sorafenib, reference compound] the cell viability (Huh-7; Huh-7, 0.1 μM sorafenib alone) was “suppressed” and the cell viability (SK Hep1; SK Hep1, 0.1 μM sorafenib alone) was “suppressed”.
